In test [1] the test system is WiDr cells (colon cancer cells; wildtype SF3B1). In words: Cell viability assay (CellTiter-Glo, 72 hr), WiDr cells. The test is classed as cell-based. The conditions noted are these: Homo sapiens; WiDr cells (wildtype SF3B1); read-out: WiDr GI50. The method in brief: (§1)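 Cells at 2000/well were exposed to 9 compound concentrations (0.1% DMSO) in duplicate or triplicate for 72 hr at 37 °C. ATP was read by CellTiter-Glo against a time-zero plate and DMSO control growth. Percent growth/viability was plotted against concentration to give Emax; negative values indicate lethality.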
(Cellular ATP, detected with luciferase, serves as a proxy for viable cell number.)

Test [2] has as its target T1, SF3b complexes (Homo sapiens, UniProt O75533+Q7RTV0).
T1 construct: endogenous in cells
Briefly: Scintillation proximity assay (SPA) with [3H]-labelled pladienolide probe. The test is classed as binding. The conditions noted are these: wt SF3B1, read-out: SPA (wt SF3B1 cells) IC50. The method in brief: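 SF3b complexes immunoprecipitated from nuclear extracts with anti-SF3B1 antibody on anti-mouse PVT SPA beads. Beads pre-incubated 30 min with varying PB or PB-OH, then 2.5 nM [3H]-PB added for 30 min; scintillation signal read and fit by non-linear regression.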

Test [3] deals with WiDr-R cells (colon cancer cells; chemically-induced SF3B1 R1074H mutant). In words: Cell viability assay (CellTiter-Glo, 72 hr), resistant WiDr-R cells (counter-screen). The format is cell-based. The conditions noted are these: WiDr-R cells (SF3B1 R1074H mutation, resistant); read-out: WiDr-R GI50. The method in brief:
as §1

For test [4], the system named is Panc 05.04 cells (pancreatic cancer cells; Q699H and K700E mutations in SF3B1). In words: Cell viability assay (CellTiter-Glo, 72 hr), Panc 05.04 cells. The test is classed as cell-based. The conditions noted are these: Panc 05.04 cells (mutant SF3B1); for Emax: maximum achievable response in tested dose range, negative value = cellular lethality, read-out: Panc 05.04 (mt SF3B1 cells) Emax (%); for GI50: read-out: Panc 05.04 (mt SF3B1 cells), GI50. The method in brief: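 Panc 05.04 cells treated 72 hr at 37 °C with 9 compound concentrations (0.1% DMSO), duplicate or triplicate. ATP read by CellTiter-Glo; growth inhibition/viability calculated against a time-zero plate and DMSO control growth. Emax is the maximal response over the tested range, negative values meaning lethality.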

In general, GI50 refers to the concentration that inhibits growth by half. By IC50 is commonly meant the concentration needed to halve the response being measured.

As to `C/C(=C\C=C\[C@@H](C)COC(=O)N1CCCC1)[C@H]1OC(=O)C[C@H](O)CC[C@H](C)[C@@H](OC(=O)N2CCN(C)CC2)/C=C/[C@@H]1C`, the GI50 is 3.81 nM in test [1], greater than 1000 nM in test [3] and 1.36 nM in test [4]. Besides, the IC50 in test [2] came out at 2.96 nM. Besides, the Emax in test [4] was -86%.

Consider `C/C(=C\C=C\[C@@H](C)c1ccccn1)[C@H]1OC(=O)CCCCC[C@@H](OC(=O)N2CCN(C)CC2)/C=C/[C@@H]1C`, for which the GI50 in test [1] is 67.1 nM; in test [3], greater than 10000 nM; in test [4] it was 75.1 nM. In addition, the IC50 in test [2] came to 7.9 nM. For the same molecule, in test [4], the Emax was -93.5%.

Take `C/C(=C\C=C\[C@@H](C)COC(=O)N1CCC[C@H]1CO)[C@H]1OC(=O)CCCCC[C@@H](OC(=O)N2CCN(CC(F)(F)F)CC2)/C=C/[C@@H]1C`: the GI50 in test [1] was 65.5 nM; in test [3] it was greater than 1000 nM; in test [4], 54.7 nM. The IC50 in test [2] worked out at 113 nM. Also, the Emax in test [4] was -85.6%.

Consider `C/C(=C\C=C\[C@@H](C)c1ccccn1)[C@H]1OC(=O)CCCCC[C@@H](OC(=O)N(C)C)/C=C/[C@@H]1C`, for which the GI50 in test [1] was 1060 nM; in test [3], 7760 nM; in test [4], 5790 nM. The IC50 in test [2] was greater than 1200 nM. The Emax in test [4] was 48.2%.

In the case of `C/C(=C\C=C\[C@@H](C)c1ccccn1)[C@H]1OC(=O)C[C@H](O)CC[C@H](C)[C@@H](OC(=O)N(C)C)/C=C/[C@@H]1C`, the GI50 in test [1] is 479 nM; in test [3], greater than 10000 nM; in test [4], 1720 nM. Also, the IC50 in test [2] was determined as 142 nM. Also, the Emax in test [4] is 24%.

On to `C/C(=C\C=C\[C@@H](C)c1ccccn1)[C@H]1OC(=O)C[C@H](O)CC[C@@](C)(O)[C@@H](OC(=O)N2CC3(C2)CN(C2CCCCCC2)C3)/C=C/[C@@H]1C`, for which the GI50 in test [1] is 130 nM; in test [3], greater than 1000 nM; in test [4], 115 nM. In addition, the IC50 in test [2] came out at 71.3 nM. The Emax in test [4] was -41.9%.

On to `C/C(=C\C=C\[C@@H](C)COC(=O)N1CCC[C@H]1C(=O)O)[C@H]1OC(=O)C[C@H](O)CC[C@@](C)(O)[C@@H](OC(=O)N2CCN(C3CCCCCC3)CC2)/C=C/[C@@H]1C`, for which the GI50 was greater than 1000 nM in test [1], greater than 1000 nM in test [3] and 2640 nM in test [4]. Further, the IC50 in test [2] was 36.1 nM. Also, the Emax in test [4] came to 35%.

For the molecule `C/C(=C\C=C\C(C)(C)COC(=O)N1CCCC1)[C@H]1OC(=O)C[C@H](O)CC[C@@](C)(O)[C@@H](OC(=O)N2CCN(C3CCCCCC3)CC2)/C=C/[C@@H]1C`, the 50% growth inhibitory concentration (GI50) in test [1] is 3.46 nM; in test [3], 221 nM; in test [4] it was 4.43 nM. The IC50 in test [2] turned out to be 5.14 nM. Moreover, in test [4], the Emax is -79.7%.

As to `COC[C@H]1CCCN1C(=O)OC[C@H](C)/C=C/C=C(\C)[C@H]1OC(=O)C[C@H](O)CC[C@@](C)(O)[C@@H](OC(C)=O)/C=C/[C@@H]1C`, the GI50 is 71.6 nM in test [1], greater than 1000 nM in test [3] and 76.5 nM in test [4]. The IC50 in test [2] was found to be 60.7 nM. Further, in test [4], the Emax was -90.9%.

Consider `CC[C@H](O)[C@@H](C)[C@H]1O[C@@H]1C[C@@](C)(O)/C=C/C=C(\C)[C@H]1OC(=O)C[C@H](O)CC[C@H](C)[C@@H](OC(C)=O)/C=C/[C@@H]1C`, for which the GI50 in test [1] came to 2.14 nM; in test [3] it was 822 nM; in test [4], 4.88 nM. For the same molecule, the IC50 in test [2] stood at 5.28 nM. The Emax in test [4] is -65.3%.

For `C/C(=C\C=C\[C@@H](C)COC(=O)N1CCCC1(C)C)[C@H]1OC(=O)C[C@H](O)CC[C@@](C)(O)[C@@H](OC(=O)N2CCN(C)CC2)/C=C/[C@@H]1C`, the GI50 in test [1] was 9.61 nM; in test [3], greater than 1000 nM; in test [4] it was 7.82 nM. For the same molecule, the IC50 in test [2] came to 3.73 nM. Also, the Emax in test [4] is -93.7%.

As to `C/C(=C\C=C\C(C)c1ncccn1)[C@H]1OC(=O)C[C@H](O)CC[C@@](C)(O)[C@@H](OC(=O)N2CCN(C3CCCCCC3)CC2)/C=C/[C@@H]1C` (stereo partly drawn), the results for the GI50 in test [1], in test [3] and in test [4] were 45.9 nM, greater than 1000 nM and 31 nM, respectively. Also, the concentration for half-maximal inhibition (IC50) in test [2] stood at 11.9 nM. The Emax in test [4] is -91.6%.

On to `C/C(=C\C=C\[C@@H](C)CNC(=O)N1CCCC1)[C@H]1OC(=O)C[C@H](O)CC[C@@](C)(O)[C@@H](OC(=O)N2CCN(C3CCCCCC3)CC2)/C=C/[C@@H]1C`, for which the values for the GI50 in test [1], in test [3] and in test [4] were 27.6 nM, greater than 1000 nM and 19.8 nM, respectively. Further, the IC50 in test [2] was found to be 5.24 nM. Moreover, the Emax in test [4] is -90.9%.

In the case of `C/C(=C\C=C\C(C)c1ccnc(N(C)C)n1)[C@H]1OC(=O)C[C@H](O)CC[C@@](C)(O)[C@@H](OC(=O)N2CCN(C3CCCCCC3)CC2)/C=C/[C@@H]1C` (stereo partly drawn), the GI50 in test [1] is 40.1 nM; in test [3], greater than 10000 nM; in test [4], 98.3 nM. In addition, the IC50 in test [2] worked out at 16.1 nM. Besides, in test [4], the Emax was -94.5%.

In the case of `C/C(=C\C=C\[C@@H](C)CNC(=O)C1CCCC1)[C@H]1OC(=O)C[C@H](O)CC[C@@](C)(O)[C@@H](OC(=O)N2CCN(C3CCCCCC3)CC2)/C=C/[C@@H]1C`, the GI50 in test [1] was 73 nM; in test [3], greater than 1000 nM; in test [4], 53.3 nM. For the same molecule, the IC50 in test [2] amounted to 11.2 nM. Further, the Emax in test [4] was -88.4%.

For the molecule `C/C(=C\C=C\C(C)c1ccncn1)[C@H]1OC(=O)C[C@H](O)CC[C@@](C)(O)[C@@H](OC(=O)N2CCN(C3CCCCCC3)CC2)/C=C/[C@@H]1C` (stereo partly drawn), the GI50 in test [1] was 532 nM; in test [3], greater than 1000 nM; in test [4] it was 956 nM. Moreover, in test [2], the IC50 worked out at 504 nM. The Emax in test [4] was -26.6%.

Consider `C/C(=C\C=C\[C@@H](C)COC(=O)N1CCCC1)[C@H]1OC(=O)C[C@@H](O)CC[C@](C)(O)[C@@H](OC(=O)N2CCN(C)CC2)/C=C/[C@@H]1C`, for which the results for the GI50 in test [1], in test [3] and in test [4] were 15.2 nM, greater than 1000 nM and 6.55 nM, respectively. The IC50 in test [2] stood at 47.8 nM. For the same molecule, the Emax in test [4] is -90.2%.

In the case of `C/C(=C\C=C\C(C)c1cnccn1)[C@H]1OC(=O)C[C@H](O)CC[C@@](C)(O)[C@@H](OC(=O)N2CCN(C3CCCCCC3)CC2)/C=C/[C@@H]1C` (stereo partly drawn), the GI50 was 31.9 nM in test [1], greater than 10000 nM in test [3] and 22.1 nM in test [4]. Further, the IC50 in test [2] stood at 6.37 nM. In test [4], the Emax was -93.7%.

As for `CC(=O)O[C@H]1/C=C/[C@H](C)[C@@H](/C(C)=C/C=C/[C@@H](C)COC(=O)N2CCC2)OC(=O)C[C@H](O)CC[C@@]1(C)O`, the GI50 in test [1] was 138 nM; in test [3] it was greater than 10000 nM; in test [4], 44.7 nM. In test [2], the IC50 came out at 10.7 nM. The Emax in test [4] was -91.8%.

In the case of `C/C(=C\C=C\[C@@H](C)COC(=O)N1CCC[C@H]1CO)[C@H]1OC(=O)C[C@H](O)CC[C@@](C)(O)[C@@H](OC(=O)N2CCN(C)CC2)/C=C/[C@@H]1C`, the GI50 in test [1] was 29.4 nM; in test [3], greater than 1000 nM; in test [4], 20.3 nM. For the same molecule, the IC50 in test [2] came out at 14 nM. The Emax in test [4] was -77.2%.

For the molecule `C/C(=C\C=C\[C@@H](C)c1ncccn1)[C@H]1OC(=O)C[C@H](O)CC[C@@](C)(O)[C@@H](OC(=O)N2CCN(C3CCCCCC3)CC2)/C=C/[C@@H]1C`, the GI50 was 33.6 nM in test [1], greater than 1000 nM in test [3] and 29.5 nM in test [4]. In test [2], the IC50 amounted to 8.1 nM. The Emax in test [4] was -92.9%.
